Data taken from PubChem BioAssay (NCI).
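Compound exposure: 48 hours, 5 concentrations, 96-well plates. The concentration for full growth arrest is given as TGI.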

How the values were obtained:
Test in all cases: inhibition of tumour cell growth, NCI panel, 48 h
[1] = tested on: ACHN renal
[2] = tested on: A498 renal
[3] = tested on: HOP-62 NSCLC
[4] = tested on: KM12 colon
[5] = tested on: UACC-257 melanoma
[6] = tested on: LXFL 529 NSCLC
[7] = tested on: NCI-H460 lung
[8] = tested on: M14 melanoma
[9] = tested on: U251 CNS
[10] = tested on: HCT-116 colon
[11] = tested on: HT29 colon
[12] = tested on: SNB-75 CNS
[13] = tested on: K-562 leukemia
[14] = tested on: UO-31 renal
[15] = tested on: M19-MEL melanoma
[16] = tested on: KM20L2 colon
[17] = tested on: SK-OV-3 ovarian
[18] = tested on: OVCAR-4 ovarian
[19] = tested on: OVCAR-5 ovarian
[20] = tested on: IGROV1 ovarian
[21] = tested on: MALME-3M melanoma
[22] = tested on: SR leukemia
[23] = tested on: SNB-78 CNS
[24] = tested on: SK-MEL-2 melanoma
[25] = tested on: CCRF-CEM leukemia
[26] = tested on: SF-295 CNS
[27] = tested on: COLO 205 colon
[28] = tested on: NCI-H522 lung
[29] = tested on: SK-MEL-28 melanoma
[30] = tested on: 786-0 renal
[31] = tested on: SNB-19 CNS
[32] = tested on: DMS 114 small cell lung
[33] = tested on: HOP-92 NSCLC
[34] = tested on: RPMI-8226 leukemia
[35] = tested on: NCI-H23 lung
[36] = tested on: UACC-62 melanoma
[37] = tested on: OVCAR-3 ovarian
[38] = tested on: MOLT-4 leukemia
[39] = tested on: SF-268 CNS
[40] = tested on: CAKI-1 renal
[41] = tested on: RXF 393 renal
[42] = tested on: HCC-2998 colon
[43] = tested on: LOX IMVI melanoma
[44] = tested on: HL-60(TB) leukemia
[45] = tested on: HOP-18 NSCLC
[46] = tested on: TK-10 renal
[47] = tested on: SN12C renal
[48] = tested on: EKVX NSCLC
[49] = tested on: SW-620 colon
[50] = tested on: A549 NSCLC
[51] = tested on: DMS 273 small cell lung
[52] = tested on: SK-MEL-5 melanoma
[53] = tested on: SF-539 CNS
[54] = tested on: OVCAR-8 ovarian
[55] = tested on: XF 498 CNS
[56] = tested on: DLD-1 colon
[57] = tested on: HCT-15 colon

Measured: TGI

COc1ccc2c(c1)CC[C@@H]1C2CC[C@]2(C)C(=O)N(N)C(=O)CC12 (some centres not stated)
not listed: [40] | [41] | [42] | [43] | [44] | [45] | [46] | [47] | [48] | [49] | [50] | [51] | [52] | [53] | [54] | [55] | [56] | [57]
> 100 µM: all other assays above

COc1cc(Cl)c2c3c(c(C(=O)c4ccccc4)oc13)CCC2
not listed: [4] | [14] | [19] | [21] | [22] | [24] | [28] | [33] | [39]
> 100 µM: all other assays above
